Experimental data reported in article PMC7955127, “Preclinical small molecule WEHI-7326 overcomes drug resistance and elicits response in patient-derived xenograft models of human treatment-refractory tumors” (Cell Death & Disease, 2021).

Columns and labels:
[1] = tested on: COG-N-496x neuroblastoma PDX; test: High-risk neuroblastoma PDX COG-N-496x; format: in vivo, NSG mice; settings: COG-N-496x PDX; vincristine 0.5 mg/kg i.p. once weekly
Protocol: (§1) All animal studies were performed in accordance with the guidelines approved by University of New South Wales Animal Care and Ethics Committee (ACEC 17/53B) and in accordance with the requirements of the Australian Code for the Care and Use of Animals for Scientific Purposes. PDX models COG-N-440x and COG-N-496x were obtained from the Childhood Cancer Repository, Texas Tech University Health Sciences Center in Lubbock, TX, USA. 6–8 week old female NSG mice were engrafted by subcutaneous injection with 1 × 10^6 freshly thawed PDX tumor cells into one flank in a mixture of 100 μl RPMI-1640 and 100 μl Matrigel. Mice were monitored for tumor development three times weekly and tumor size measured using digital Vernier calipers. Treatments commenced when tumors reached 50 mm^3, following randomization into treatment arms. […] Mice were treated with either vincristine (0.5 mg/kg, once weekly i.p. in sterile saline for up to 5 weeks), WEHI-7326 (20 mg/kg; twice weekly i.v. in sterile saline for up to 5 weeks) or vehicle (as for WEHI-7326). For the Th-MYCN transgenic mouse model, spontaneous tumor growth in mice homozygous for the MYCN transgene was assessed by abdominal palpation at least twice a week. Treatments commenced once a small palpable tumor (~5 mm) was detected, following randomization to treatment arms. Mice were euthanized upon detection of an abdominal tumor of ~1 cm in diameter. […]

[2] = tested on: COG-N-440x neuroblastoma PDX; test: High-risk neuroblastoma PDX COG-N-440x; format: in vivo, NSG mice; settings: COG-N-440x PDX; vincristine 0.5 mg/kg i.p. once weekly
Protocol: as §1

`CC[C@]1(O)C[C@H]2CN(CCc3c([nH]c4ccccc34)[C@@](C(=O)OC)(c3cc4c(cc3OC)N(C=O)[C@H]3[C@@](O)(C(=O)OC)[C@H](OC(C)=O)[C@]5(CC)C=CCN6CC[C@]43[C@@H]65)C2)C1` [vincristine, reference compound] was tested, and the Efficacy [1] was “entirely ineffective” and the Efficacy [2] was “entirely ineffective”.
